{"source": "patent US10925858B2", "about": "“S-nitrosoglutathione (GSNO) and GSNO reductase inhibitors for use in therapy” (MUSC FOUNDATION FOR RESEARCH DEVELOPMENT, priority 2017, dated 2021)", "key": {"[1]": {"test_system": "CD4+ T cells", "experiment": "Ex vivo culture of PLP139-151 immunized T cells from EAE mice, cytokine ELISA", "format": "in vivo, SJL mice"}, "[2]": {"test_system": "IFN-γ, IL-4, IL-17, IL-10", "experiment": "ELISA of CD4+ T cell subset specific cytokines in culture media of CNS derived lymphocytes of EAE mice", "format": "in vivo, C57BL/6 mice", "settings": "N6022 1 mg/kg/day", "procedure": "Female C57BL/6 mice of 8-12 weeks of age, purchased from Jackson Laboratory, were provided with food and water ad libitum and were kept in pathogen free animal care facility of Medical University of South Carolina (MUSC) throughout the study. All procedures were conducted in accordance with accepted standards of humane care as approved by the Institutional Animal Care and Use Committee (Approved number: AR #1644). EAE was induced as described previously (Nath et al., 2009). Briefly, mice were immunized subcutaneously in the flank regions with MOG35-55 peptide (MOG; 200 μg; Peptide International) emulsified (1:1) in 100 ul complete Freund's adjuvant (CFA) on day 0 and day 7. Additionally, 300 ng of Pertussis toxin (Sigma-Aldrich, St. Louis, Mo.) was given on day 0 and day 2 by i.p. injection. Pertussis toxin used as per the standardized protocol reported by us and other investigators for the induction of EAE (Nath et al., 2009). Similarly, healthy control group received subcutaneous injection of PBS and CFA emulsion on day 0 and day 7. Clinical signs of EAE were scored by examiners blinded to experimental treatments using the following scale: 0=no clinical signs of disease; 1=piloerection and sluggish; 2=limp tail (ataxia); 2.5=ataxia with partial hind limb paralysis; 3=full paralysis of hind limb; 3.5=full paralysis of hind limb with paralysis of one fore limb; 4=full paralysis of two limbs; 4.5=moribund stage; 5=death. […] The drug treatments were continued till the termination of the study (day 41 post immunization). EAE animals without drug treatment received PBS. Likewise, healthy controls received vehicle.\nFluorescence flow cytometry analysis for each subset of CD4+ T cells (TH1, TH2, TH17, CD4+CD25+ FOXP3+ Treg, and CD4+CD25+ FOXP3− Treg) were performed based on our previous report with modification (Nath et al., 2004). Briefly, control mice, EAE mice. EAE mice treated with GSNO. […] Following the preparation of single cell suspension, red blood cells were lysed with Pharma lyse buffer (BD Pharmingen™) and the remaining spleen cells were washed with RPMI 1640. The isolated CD4+ T cells were then resuspended with complete RPMI-media in 12-well plates (5×10^6 cells' 2 ml per well) containing MOG peptide (25 μg/ml) for 48 hrs. […] The cell pellets were washed with cell staining solution (ebioscience, Waltham, Mass. USA) and stained with fluorescence labeled antibody specific to IFN-γ for TH1. […] The cells were counted and analyzed using Beackman Coulter instrument (Beckman Coulter, Inc., Brea, Calif., USA).\nELISA assay was performed for analysis of CD4+ T cell subset specific cytokines released from cultured cells or spinal cord tissues. […] The equal amounts of proteins were analyzed for ELISA for IFN-γ. […]"}, "[3]": {"molecular_target": "GSNOR (Homo sapiens, UniProt P11766)", "sequence (P11766 whole entry)": "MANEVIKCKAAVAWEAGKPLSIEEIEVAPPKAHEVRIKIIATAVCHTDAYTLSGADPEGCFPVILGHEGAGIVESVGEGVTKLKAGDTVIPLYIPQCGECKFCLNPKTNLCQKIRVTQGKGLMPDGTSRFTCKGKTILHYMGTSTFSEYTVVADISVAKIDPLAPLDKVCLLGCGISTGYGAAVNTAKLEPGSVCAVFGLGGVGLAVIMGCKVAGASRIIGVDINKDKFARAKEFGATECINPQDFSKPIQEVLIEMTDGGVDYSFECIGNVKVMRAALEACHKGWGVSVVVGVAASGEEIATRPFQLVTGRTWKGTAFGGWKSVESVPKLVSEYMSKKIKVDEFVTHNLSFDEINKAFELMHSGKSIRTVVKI", "settings": "description of the compound; cited from earlier work"}, "[4]": {"test_system": "protein-associated 3-nitrotyrosine", "experiment": "Assay for protein-associated nitrotyrosine in hBMVECs", "format": "cell-based, human", "settings": "thrombin 0.1 unit/ml 20 min; L-NIO or FeTPPS 10 μM pretreated 30 min; ELISA", "procedure": "Cell culture: Primary human brain microvascular endothelial cells (hBMVECs) were purchased from Angio-Proteomie (Cat #: cAP-0002, Atlanta, Ga.). The cells were cultured in cell culture flasks or plates precoated with Quick Coating Solution (Angio-Proteomie; Cat #: cAP-01) and maintained in Endothelial Growth Medium (Angio-Proteomie; Cat #: cAP-02) at 37° C. under 5% CO2/95% air. When the cells were almost confluent, the medium was replaced with endothelial basal medium (Angio-Proteomie; Cat #: cAP-03) containing 0.5% fetal bovine serum (FBS; Life Technologies, Grand Island, N.Y.) about 8-12 hours before the experiment. No institutional approval was required for this study. The study was not pre-registered.\nCellular levels of protein-associated 3-nitrotyrosine were analyzed by ELISA Kit (Abeam, Cat #: ab116691) and Western blot analysis using antibody specific to 3-nitrotyrosine (Abeam, Cat #: ab61392). For the ELISA, hBMVECs were lysed in extraction buffer provided with the kit followed by centrifugation at 16,000×g 4° C. The cell lysate supernatants were subjected to protein quantification with Bio-Rad DC protein assay kit (Bio-Rad, Hercules, Calif.) and the equal amounts of proteins (500 μg) were loaded onto 96 well microplate coated with 3-nitrotyrosine capture antibody and followed by incubation with biotin-conjugated 3-nitrotyrosine detector antibody. Following washing, the plates were incubated with HRP-conjugated streptoavidin and the levels of 3-nitrotyrosine were measured by incubation with 3,3′,5,5′-tetramethylbenzidine solution and colorimetric analysis at […] using SpectraMax 190 Microplate Reader (Molecular Devices, Sunnyvale, Calif.). For analysis of degree of RhoA tyrosine nitration, the cell lysates were immunoprecipiated with antibody specific to 3-nitrotyrosine (Abeam) and the levels of tyrosine nitrated RhoA were analyzed by Western analysis for RhoA."}, "[5]": {"settings": "T cells from GSNO (1.0 mg/kg daily from immunization) treated vs untreated EAE mice, TH0 condition"}, "[6]": {"settings": "T cells from GSNO treated vs untreated EAE mice"}}, "data": [{"smiles": "N[C@@H](CCC(=O)N[C@@H](CSN=O)C(=O)NCC(=O)O)C(=O)O", "note": "[GSNO, S-nitrosoglutathione]", "values": [{"measurement": "IFN-γ production of T cells in response to PLP139-151 stimulation", "setting": "[1]; [5]", "result": "comparable levels"}, {"measurement": "IL-17 production of T cells in response to PLP139-151 stimulation", "setting": "[1]; [5]", "result": "significantly lower levels"}, {"measurement": "GM-CSF production under TH1 and TH17 skewing conditions", "setting": "[1]; [6]", "result": "similarly increased levels"}, {"measurement": "IFN-γ production under TH1 skewing conditions", "setting": "[1]; [6]", "result": "comparable amounts"}, {"measurement": "IL-10 production under TH1 and TH17 skewing conditions", "setting": "[1]; [6]", "result": "significantly higher amounts"}, {"measurement": "IL-17 production under TH17 skewing conditions", "setting": "[1]; [6]", "result": "EAE group produced higher levels of IL-17 than T cells isolated from GSNO+ EAE group"}]}, {"smiles": "Cc1cc(C(N)=O)ccc1-n1c(CCC(=O)O)ccc1-c1ccc(-n2ccnc2)cc1", "note": "[N6022, reference compound]", "values": [{"measurement": "IFN-γ in culture media of CNS derived lymphocytes", "setting": "[2]", "result": "decreased"}, {"measurement": "IL-4 release of CNS derived lymphocytes", "setting": "[2]", "result": "increased"}, {"measurement": "IL-17 in culture media of CNS derived lymphocytes", "setting": "[2]", "result": "decreased"}, {"measurement": "IL-10 expression of CNS derived lymphocytes", "setting": "[2]; vs control levels", "result": "increased"}, {"measurement": "inhibition of GSNOR", "setting": "[3]", "result": "very potent, specific, and reversible inhibitor"}]}, {"smiles": "Cl.O=S(=O)([O-])c1ccc(-c2c3nc(c(-c4ccc(S(=O)(=O)O)cc4)c4ccc([nH]4)c(-c4ccc(S(=O)(=O)O)cc4)c4nc(c(-c5ccc(S(=O)(=O)O)cc5)c5ccc2[nH]5)C=C4)C=C3)cc1.[Fe]", "note": "[FeTPPS, 5,10,15,20-Tetrakis(4-sulfonatophenyl)porphyrinato Iron (III), Cl, reference compound]", "values": [{"measurement": "thrombin-induced 3-nitrotyrosine levels", "setting": "[4]", "result": "inhibited"}]}]}
